In US4859776A, “(S)-7-(3-aminopyrrolidin-1-yl)-1-(ortho, para-difluorophenyl)-1,4-dihydro-6-fluoro-4-oxo-1,8-naphthyridine-3-carb oxylic acid and method for its preparation” (Abbott Laboratories, priority 1988, dated 1989):

How the values were obtained:
[1] = one enantiomeric form vs the other form; background statement; cited from earlier work
S. Aureus NCTC 10649 = assay: Mouse protection test, S. Aureus NCTC 10649; assay type: in vivo; settings: Staphylococcus aureus
Description: (§1) The differences in in vivo antibacterial activity of racemic (R,S) compound (A) versus the (S) enantiomeric form of compound (A) are shown in Table I. |POTENCY OF (A) IN MOUSE PROTECTION TESTS | ED50 (mg/kg/day)

E. Coli Juhl = assay: Mouse protection test, E. Coli Juhl; assay type: in vivo; settings: Escherichia coli
Description: as §1

P. Aeruginosa 5007 = assay: Mouse protection test, P. Aeruginosa 5007; assay type: in vivo; settings: Pseudomonas aeruginosa
Description: as §1

[2] = racemic mixture; J. Med. Chem., 29, 2363 (1986); cited from earlier work

Row | SMILES | activity in raising blood pressure, one enantiomeric form versus the other [1] | ED50 (S. Aureus NCTC 10649; NCTC10649, oral) | ED50 (S. Aureus NCTC 10649; NCTC10649, sc, subcutaneous) | ED50 (E. Coli Juhl; oral) | ED50 (E. Coli Juhl; sc, subcutaneous) | ED50 (P. Aeruginosa 5007; oral) | ED50 (P. Aeruginosa 5007; sc, subcutaneous) | antibacterial properties [2]
1 | CNCC(O)c1ccc(O)c(O)c1 (centres unmarked) [adrenalin] | over ten times more active |  |  |  |  |  |  | 
2 | N[C@H]1CCN(c2nc3c(cc2F)c(=O)c(C(=O)O)cn3-c2ccc(F)cc2F)C1 [(S)--(A), (S)-7-(3-aminopyrrolidin-1-yl)-1-(o,p-difluorophenyl)-1,4-dihydro-6-fluoro-4-oxo-1,8-naphthyridine-3-carboxylic acid] |  | 0.8 mg/kg | 0.4 mg/kg | 0.8 mg/kg | 0.2 mg/kg | 12.1 mg/kg | 8.6 mg/kg | 
3 | NC1CCN(c2nc3c(cc2F)c(=O)c(C(=O)O)cn3-c2ccc(F)cc2F)C1 (racemic) [(R,S)--(A), 7-(3-aminopyrrolidin-1-yl)-1-(o,p-difluorophenyl)-1,4-dihydro-6-fluoro-4-oxo-1,8-naphthyridine-3-carboxylic acid] |  | 1 mg/kg | 0.4 mg/kg | 1.2 mg/kg | 0.3 mg/kg | 16 mg/kg | > 20 mg/kg | has been shown to exhibit antibacterial properties
